How the values were obtained:
Format in all cases: in vivo
[1] = system: Italian ryegrass (Lolium mutiflorum); experiment: Test C preemergence, visual plant response rating
Source text: (§1) Seeds of plant species selected from barnyardgrass (Echinochloa crus-galli), kochia (Bassia scoparia), ragweed (common ragweed, Ambrosia artemisiifolia), Italian ryegrass (Lolium mutiflorum), foxtail, giant (giant foxtail, Setaria faberi), foxtail, green (green foxtail, Setaria viridis), and pigweed (Amaranthus retroflexus) were planted into a blend of loam soil and sand and treated preemergence with a directed soil spray using test chemicals formulated in anon-phytotoxic solvent mixture which included a surfactant.
(§2) At the same time, plants selected from these weed species and also wheat (Triticum aestivum), corn (Zea mays), blackgrass (Alopecurus myosuroides), and galium (catchweed bedstraw, Galium aparine) were planted in pots containing the same blend of loam soil and sand and treated with post emergence applications of test chemicals formulated in the same manner. Plants ranged in height from 2 to 10 cm and were in the one- to two-leaf stage for the postemergence treatment. Treated plants and untreated controls were maintained in a greenhouse for approximately 10 d, after which time all treated plants were compared to untreated controls and visually evaluated for injury. Plant response ratings, summarized in Table C, are based on a 0 to 100 scale where 0 is no effect and 100 is complete control. A dash (-)response means no test result.

[2] = system: barnyardgrass (Echinochloa crus-galli); experiment: Test C preemergence, visual plant response rating
Source text: as §1, §2

[3] = system: foxtail, giant (giant foxtail, Setaria faberi); experiment: Test C preemergence, visual plant response rating
Source text: as §1, §2

kochia (Bassia scoparia) [4] = experiment: Test C preemergence, visual plant response rating
Source text: as §1, §2

[5] = system: pigweed (Amaranthus retroflexus); experiment: Test C preemergence, visual plant response rating
Source text: as §1, §2

[6] = system: Italian ryegrass (Lolium mutiflorum); experiment: Test C postemergence, visual plant response rating
Source text: as §1, §2

[7] = system: barnyardgrass (Echinochloa crus-galli); experiment: Test C postemergence, visual plant response rating
Source text: as §1, §2

[8] = system: blackgrass (Alopecurus myosuroides); experiment: Test C postemergence, visual plant response rating
Source text: as §1, §2

corn (Zea mays) = experiment: Test C postemergence, visual plant response rating
Source text: as §1, §2

[9] = system: foxtail, giant (giant foxtail, Setaria faberi); experiment: Test C postemergence, visual plant response rating
Source text: as §1, §2

[10] = system: galium (catchweed bedstraw, Galium aparine); experiment: Test C postemergence, visual plant response rating
Source text: as §1, §2

kochia (Bassia scoparia) [11] = experiment: Test C postemergence, visual plant response rating
Source text: as §1, §2

[12] = system: pigweed (Amaranthus retroflexus); experiment: Test C postemergence, visual plant response rating
Source text: as §1, §2

[13] = system: ragweed (common ragweed, Ambrosia artemisiifolia); experiment: Test C postemergence, visual plant response rating
Source text: as §1, §2

[14] = system: wheat (Triticum aestivum); experiment: Test C postemergence, visual plant response rating
Source text: as §1, §2

[15] = system: barnyardgrass (Echinochloa crus-galli); experiment: Test D flooded paddy test, visual plant response rating; conditions: 250 g ai/ha, scale 0 to 100 (0 no effect, 100 complete control), 13 to 15 d
Method: (§3) Plant species in the flooded paddy test selected from rice (Oryza sativa), sedge umbrella (small-flower umbrella sedge, Cyperus difformis) duck salad (Heteranthera limosa), and barnyardgrass (Echinochloa crus-galli) were grown to the 2-leaf stage for testing. At time of treatment, test pots were flooded to 3 cm above the soil surface, treated by application of test compounds directly to the paddy water, and then maintained at that water depth for the duration of the test. Treated plants and controls were maintained in a greenhouse for 13 to 15 d, after which time all species were compared to controls and visually evaluated. Plant response ratings, summarized in Table D, are based on a scale of 0 to 100 where 0 is no effect and 100 is complete control. A dash (-) response means no test result.

[16] = system: duck salad (Heteranthera limosa); experiment: as above; conditions: 250 g ai/ha, scale 0 to 100 (0 no effect, 100 complete control), 13 to 15 d
Method: as §3

rice (Oryza sativa) = experiment: as above; conditions: 250 g ai/ha, scale 0 to 100 (0 no effect, 100 complete control), 13 to 15 d
Method: as §3

[17] = system: sedge umbrella (small-flower umbrella sedge, Cyperus difformis); experiment: as above; conditions: 250 g ai/ha, scale 0 to 100 (0 no effect, 100 complete control), 13 to 15 d
Method: as §3

[18] = Test C, 31 g ai/ha, 0 is no effect, 100 is complete control
[19] = Test C, 125 g ai/ha, 0 is no effect, 100 is complete control
[20] = Test C, postemergence, 125 g ai/ha

SMILES	Ryegrass, Italian plant response rating (0 to 100 scale) [1, 18]	Barnyardgrass plant response rating (0 to 100 scale) [2, 18]	Foxtail, Giant plant response rating (0 to 100 scale) [3, 18]	Kochia plant response rating (0 to 100 scale) (kochia (Bassia scoparia) [4]; [18])	Pigweed plant response rating (0 to 100 scale) [5, 18]	Ryegrass, Italian plant response rating (0 to 100 scale) ([6]; Postemergence, 31 g ai/ha)	Ryegrass, Italian plant response rating (0 to 100 scale) [6, 20]	Barnyardgrass plant response rating (0 to 100 scale) ([7]; Postemergence, 31 g ai/ha)	Barnyardgrass plant response rating (0 to 100 scale) [7, 20]	Blackgrass plant response rating (0 to 100 scale) ([8]; Postemergence, 31 g ai/ha)	Blackgrass plant response rating (0 to 100 scale) [8, 20]	Corn plant response rating (0 to 100 scale) (corn (Zea mays); Postemergence, 31 g ai/ha)	Corn plant response rating (0 to 100 scale) (corn (Zea mays); [20])	Foxtail, Giant plant response rating (0 to 100 scale) ([9]; Postemergence, 31 g ai/ha)	Foxtail, Giant plant response rating (0 to 100 scale) [9, 20]	Galium plant response rating (0 to 100 scale) ([10]; Postemergence, 31 g ai/ha)	Galium plant response rating (0 to 100 scale) [10, 20]	Kochia plant response rating (0 to 100 scale) (kochia (Bassia scoparia) [11]; Postemergence, 31 g ai/ha)	Kochia plant response rating (0 to 100 scale) (kochia (Bassia scoparia) [11]; [20])	Pigweed plant response rating (0 to 100 scale) ([12]; Postemergence, 31 g ai/ha)	further results
CC(C)O/N=C(\c1c(O)c(Cl)nn(C)c1=O)c1cc(Br)cc2ccccc12 [Compound 233]	0	90	60	0	90	0	0	40	60	0	30	0	10	30	80	60	90	0	10	60	Ryegrass, Italian plant response rating (0 to 100 scale) [1, 19]: 0; Barnyardgrass plant response rating (0 to 100 scale) [2, 19]: 100; Foxtail, Giant plant response rating (0 to 100 scale) [3, 19]: 100; Kochia plant response rating (0 to 100 scale) (kochia (Bassia scoparia) [4]; [19]): 0; Pigweed plant response rating (0 to 100 scale) [5, 19]: 90; Pigweed plant response rating (0 to 100 scale) [12, 20]: 90; Ragweed plant response rating (0 to 100 scale) ([13]; Postemergence, 31 g ai/ha): 100; Ragweed plant response rating (0 to 100 scale) [13, 20]: 100; Wheat plant response rating (0 to 100 scale) ([14]; Postemergence, 31 g ai/ha): 0; Wheat plant response rating (0 to 100 scale) [14, 20]: 0; Plant response rating, Barnyardgrass (Flood) [15]: 30; Plant response rating, Ducksalad (Flood) [16]: 0; Plant response rating, Rice (Flood) (rice (Oryza sativa)): 0; Plant response rating, Sedge, Umbrella (Flood) [17]: 85
CON=C(c1c(OC(C)=O)c(Cl)nn(C)c1=O)c1ccc(F)c2ccccc12 [Compound 190]	0	30	60	0	20	10	20	30	20	0	20	0	0	10	30	90	100	10	20	30	Ryegrass, Italian plant response rating (0 to 100 scale) ([1]; 125 g ai/ha): 60; Barnyardgrass plant response rating (0 to 100 scale) ([2]; 125 g ai/ha): 50; Foxtail, Giant plant response rating (0 to 100 scale) ([3]; 125 g ai/ha): 70; Kochia plant response rating (0 to 100 scale) (kochia (Bassia scoparia) [4]; 125 g ai/ha): 0; Pigweed plant response rating (0 to 100 scale) ([5]; 125 g ai/ha): 90; Pigweed plant response rating (0 to 100 scale) [12, 20]: 30; Ragweed plant response rating (0 to 100 scale) ([13]; Postemergence, 31 g ai/ha): 10; Ragweed plant response rating (0 to 100 scale) [13, 20]: 60; Wheat plant response rating (0 to 100 scale) ([14]; Postemergence, 31 g ai/ha): 0; Wheat plant response rating (0 to 100 scale) [14, 20]: 0; Plant response rating, Barnyardgrass (Flood) [15]: 0; Plant response rating, Ducksalad (Flood) [16]: 0; Plant response rating, Rice (Flood) (rice (Oryza sativa)): 0; Plant response rating, Sedge, Umbrella (Flood) [17]: 0

— patent publication US20210045385A1, “PYRIDAZINONE-SUBSTITUTED KETOXIMES AS HERBICIDES” (FMC Corporation, priority 2018, published 2021)
